Reference: US10442791B2, “DNA-PK inhibitors” (Vertex Pharmaceuticals Incorporated, priority 2012, dated 2019)
pKi: −log10 of the molar value.

Molecular target: DNA-PK (Homo sapiens, UniProt P78527)
Experiment: DNA-PK inhibition assay (radiometric 33P-ATP kinase assay)
Assay type: biochemical
Conditions: 100 μM ATP; competitive tight-binding fit
Experimental: Compounds were screened for their ability to inhibit DNA-PK kinase using a standard radiometric assay. Briefly, in this kinase assay the transfer of the terminal ^33P-phosphate in ^33P-ATP to a peptide substrate is interrogated. The assay was carried out in 384-well plates to a final volume of 50 μL per well containing approximately 6 nM DNA-PK, 50 mM HEPES (pH 7.5), 10 mM MgCl2, 25 mM NaCl, 0.01% BSA, 1 mM DTT, 10 μg/mL sheared double-stranded DNA (obtained from Sigma), 0.8 mg/mL DNA-PK peptide ([…] obtained from American Peptide), and 100 μM ATP. Accordingly, compounds of the invention were dissolved in DMSO to make 10 mM initial stock solutions. Serial dilutions in DMSO were then made to obtain the final solutions for the assay. A 0.75 μL aliquot of DMSO or inhibitor in DMSO was added to each well, followed by the addition of ATP substrate solution containing ^33P-ATP (obtained from Perkin Elmer). The reaction was started by the addition of DNA-PK, peptide and ds-DNA. After 45 min. the reaction was quenched with 25 μL of 5% phosphoric acid. The reaction mixture was transferred to MultiScreen HTS 384-well PH plates (obtained from Millipore), allowed to bind for one hour, and washed three times with 1% phosphoric acid. Following the addition of 50 μL of Ultima Gold™ high efficiency scintillant (obtained from Perkin Elmer), the samples were counted in a Packard TopCount NXT Microplate Scintillation and Luminescence Counter (Packard BioScience). The Ki values were calculated using Microsoft Excel Solver macros to fit the data to the kinetic model for competitive tight-binding inhibition.

SMILES	pKi
[2H]c1nc(C)nc([2H])c1-c1cc(NC[C@@H](C)c2cccc3c(C(N)=O)ccnc23)ncn1 [Compound 1027]	> 7.52
CNC(=O)c1ccnc2c([C@H](C)CNc3cc(-c4cnc(NC5CC5)nc4)ncn3)ccc(F)c12 [Compound 1028]	> 7.52
CNC(=O)c1ccnc2c([C@H](C)CNc3cc(-c4cnc(NC5CC5)nc4)ncn3)cccc12 [Compound 1029]	> 7.52
CCOc1ncc(-c2cc(NC[C@@H](C)c3cccc4c(C(=O)NC)c(F)cnc34)ncn2)cn1 [Compound 1030]	> 7.52
CNC(=O)c1ccnc2c([C@H](C)CNc3cc(-c4cnc(OC)nc4)ncn3)ccc(F)c12 [Compound 1031]	> 7.52
CNC(=O)c1c(F)cnc2c([C@H](C)CNc3cc(-c4cnc(NC5CC5)nc4)ncn3)cccc12 [Compound 1032]	> 7.52
CNC(=O)c1c(F)cnc2c([C@H](C)CNc3cc(-c4cnc(NCC(F)(F)F)nc4)ncn3)cccc12 [Compound 1033]	> 7.52
CNC(=O)c1ccnc2c([C@H](C)CNc3cc(-c4cnc(NC5CCN(CC(F)F)CC5)nc4)ncn3)cccc12 [Compound 1034]	> 7.52
CNC(=O)c1c(F)cnc2c([C@H](C)CNc3cc(-c4cnc(OC)nc4)ncn3)cccc12 [Compound 1035]	> 7.52
CNC(=O)c1c(F)cnc2c([C@H](C)CNc3cc(-c4cnc(NC5CCN(CC(F)(F)F)CC5)nc4)ncn3)cccc12 [Compound 1036]	> 7.52
CNC(=O)c1c(F)cnc2c([C@H](C)CNc3cc(-c4cnc(NC5CCN(CC(F)F)CC5)nc4)ncn3)cccc12 [Compound 1037]	> 7.52
CNC(=O)c1ccnc2c([C@H](C)CNc3cc(-c4cnc(NC5CCN(CC(F)F)CC5)nc4)ncn3)ccc(F)c12 [Compound 1038]	> 7.52
CNC(=O)c1ccnc2c([C@H](C)CNc3cc(-c4ccc(N(C)C5CCN(CC(F)(F)F)CC5)nc4)ncn3)cccc12 [Compound 1042]	> 7.52
CNC(=O)c1c(F)cnc2c([C@H](C)CNc3cc(-c4ccc(CC5CCN(CC(F)F)CC5)nc4)ncn3)cccc12 [Compound 1043]	> 7.52
CNC(=O)c1c(F)cnc2c([C@H](C)CNc3cc(-c4cnc(CC5CCN(C(C)=O)CC5)nc4)ncn3)cccc12 [Compound 1044]	> 7.52
CNC(=O)c1ccnc2c([C@H](C)CNc3cc(-c4cnc(CC5CCN(CC(F)F)CC5)nc4)ncn3)cccc12 [Compound 1045]	> 7.52
CNC(=O)c1c(F)cnc2c([C@H](C)CNc3cc(-c4cnc(CC5CCN(CC(F)F)CC5)nc4)ncn3)cccc12 [Compound 1046]	> 7.52

SMILES	pKi
CNC(=O)c1ccnc2c([C@H](C)CNc3cc(-c4cnc(CC5CCN(CC(F)(F)F)CC5)nc4)ncn3)cccc12 [Compound 1047]	> 7.52
CNC(=O)c1c(F)cnc2c([C@H](C)CNc3cc(-c4cnc(CC5CCN(CC(F)(F)F)CC5)nc4)ncn3)cccc12 [Compound 1048]	> 7.52
CNC(=O)c1c(F)cnc2c([C@H](C)CNc3cc(-c4cnc(OC5CCN(C)CC5)nc4)ncn3)cccc12 [Compound 1050]	> 7.52
CNC(=O)c1ccnc2c([C@H](C)CNc3cc(-c4cnc(NCCNC(C)=O)nc4)ncn3)cccc12 [Compound 1051]	> 7.52
CNC(=O)c1c(F)cnc2c([C@H](C)CNc3cc(-c4cnc(NCCNC(C)=O)nc4)ncn3)cccc12 [Compound 1052]	> 7.52
CNC(=O)c1ccnc2c([C@H](C)CNc3cc(-c4cnc(NCCNC(C)=O)nc4)ncn3)ccc(F)c12 [Compound 1053]	> 7.52
CNC(=O)c1ccnc2c([C@H](C)CNc3cc(-c4cnc(NCC(F)(F)F)nc4)ncn3)ccc(F)c12 [Compound 1054]	> 7.52
CNC(=O)c1ccnc2c([C@H](C)CNc3cc(-c4cnc(NC5CCN(C(C)=O)CC5)nc4)ncn3)ccc(F)c12 [Compound 1055]	> 7.52
CNC(=O)c1ccnc2c([C@H](C)CNc3cc(-c4cnc(N(C)C5CCN(C)CC5)nc4)ncn3)cccc12 [Compound 1057]	> 7.52
CNC(=O)c1c(F)cnc2c([C@H](C)CNc3cc(-c4cnc(N(C)C5CCN(C)CC5)nc4)ncn3)cccc12 [Compound 1058]	> 7.52
CNC(=O)c1c(F)cnc2c([C@H](C)CNc3cc(-c4cnc(N(C)C5CCN(C(C)=O)CC5)nc4)ncn3)cccc12 [Compound 1059]	> 7.52
CNC(=O)c1ccnc2c([C@H](C)CNc3cc(-c4cnc(N(C)C5CCN(CC(F)F)CC5)nc4)ncn3)cccc12 [Compound 1060]	> 7.52
CNC(=O)c1ccnc2c([C@H](C)CNc3cc(-c4cnc(N(C)C5CCN(CC(F)(F)F)CC5)nc4)ncn3)cccc12 [Compound 1061]	> 7.52
CNC(=O)c1c(F)cnc2c([C@H](C)CNc3cc(-c4cnc(N(C)C5CCN(CC(F)F)CC5)nc4)ncn3)cccc12 [Compound 1062]	> 7.52
CNC(=O)c1c(F)cnc2c([C@H](C)CNc3cc(-c4ccc(NC5CCN(C)CC5)nc4)ncn3)cccc12 [Compound 1063]	> 7.52
CNC(=O)c1ccnc2c([C@H](C)CNc3cc(-c4ccc(NC5CCN(C(C)=O)CC5)nc4)ncn3)cccc12 [Compound 1064]	> 7.52
CNC(=O)c1c(F)cnc2c([C@H](C)CNc3cc(-c4ccc(N(C)C5CCN(C)CC5)nc4)ncn3)cccc12 [Compound 1087]	> 7.52

Now from value to molecule:

pKi	SMILES
> 7.52	CNC(=O)c1c(F)cnc2c([C@H](C)CNc3cc(-c4ccc(NC5CCN(C(C)=O)CC5)nc4)ncn3)cccc12 [Compound 1065]
> 7.52	CNC(=O)c1ccnc2c([C@H](C)CNc3cc(-c4cnc(NCC(F)(F)F)nc4)ncn3)cccc12 [Compound 1066]
> 7.52	CNC(=O)c1ccnc2c([C@H](C)CNc3cc(-c4ccc(C5(O)COC5)nc4)ncn3)cccc12 [Compound 1067]
> 7.52	CNC(=O)c1c(F)cnc2c([C@H](C)CNc3cc(-c4ccc(C5(O)COC5)nc4)ncn3)cccc12 [Compound 1068]
> 7.52	CNC(=O)c1ccnc2c([C@H](C)CNc3cc(-c4ccc(C5(O)COC5)nc4)ncn3)ccc(F)c12 [Compound 1069]
> 7.52	CNC(=O)c1ccnc2c([C@H](C)CNc3cc(-c4cnc(CC5CCN(C(C)=O)CC5)nc4)ncn3)cccc12 [Compound 1071]
> 7.52	CNC(=O)c1ccnc2c([C@H](C)CNc3cc(-c4cnc(OC5CCN(C)CC5)nc4)ncn3)ccc(F)c12 [Compound 1073]
> 7.52	CNC(=O)CNc1ncc(-c2cc(NC[C@@H](C)c3cccc4c(C(=O)NC)ccnc34)ncn2)cn1 [Compound 1074]
> 7.52	CNC(=O)CNc1ncc(-c2cc(NC[C@@H](C)c3cccc4c(C(=O)NC)c(F)cnc34)ncn2)cn1 [Compound 1075]
> 7.52	CNC(=O)c1c(F)cnc2c([C@H](C)CNc3cc(-c4cnc(NCC(=O)N(C)C)nc4)ncn3)cccc12 [Compound 1076]
> 7.52	CNC(=O)c1ccnc2c([C@H](C)CNc3cc(-c4cnc(NCC(=O)N(C)C)nc4)ncn3)cccc12 [Compound 1077]
> 7.52	CNC(=O)c1ccnc2c([C@H](C)CNc3cc(-c4cnc(NC5CCN(C)CC5)nc4)ncn3)cccc12 [Compound 1078]
> 7.52	CNC(=O)c1c(F)cnc2c([C@H](C)CNc3cc(-c4cnc(NC5CCN(C)CC5)nc4)ncn3)cccc12 [Compound 1079]
> 7.52	CNC(=O)c1ccnc2c([C@H](C)CNc3cc(-c4cnc(NC5CCN(CC(F)(F)F)CC5)nc4)ncn3)cccc12 [Compound 1080]
> 7.52	CNC(=O)c1ccnc2c([C@H](C)CNc3cc(-c4cnc(N(C)C5CCN(C(C)=O)CC5)nc4)ncn3)cccc12 [Compound 1081]
> 7.52	CNC(=O)c1c(F)cnc2c([C@H](C)CNc3cc(-c4cnc(N(C)C5CCN(CC(F)(F)F)CC5)nc4)ncn3)cccc12 [Compound 1082]
> 7.52	CNC(=O)c1ccnc2c([C@H](C)CNc3cc(-c4ccc(NC5CCN(CC(F)F)CC5)nc4)ncn3)cccc12 [Compound 1083]
> 7.52	CNC(=O)c1c(F)cnc2c([C@H](C)CNc3cc(-c4ccc(NC5CCN(CC(F)F)CC5)nc4)ncn3)cccc12 [Compound 1084]
> 7.52	CNC(=O)c1ccnc2c([C@H](C)CNc3cc(-c4ccc(NC5CCN(CC(F)(F)F)CC5)nc4)ncn3)cccc12 [Compound 1085]
> 7.52	CNC(=O)c1c(F)cnc2c([C@H](C)CNc3cc(-c4ccc(NC5CCN(CC(F)(F)F)CC5)nc4)ncn3)cccc12 [Compound 1086]
> 7.52	CNC(=O)c1ccnc2c([C@H](C)CNc3cc(-c4ccc(N(C)C5CCN(C(C)=O)CC5)nc4)ncn3)cccc12 [Compound 1088]
> 7.52	CNC(=O)c1c(F)cnc2c([C@H](C)CNc3cc(-c4ccc(N(C)C5CCN(CC(F)F)CC5)nc4)ncn3)cccc12 [Compound 1089]
> 7.52	CNC(=O)c1c(F)cnc2c([C@H](C)CNc3cc(-c4ccc(N(C)C5CCN(CC(F)(F)F)CC5)nc4)ncn3)cccc12 [Compound 1090]
